Experiments:
Type in all cases: in vivo
[1] = system: green rice leafhopper (Nephotettix cinticeps); assay: Nephotettix test; conditions: after 6 days; active compound concentration 0.1%; rice seedlings dipped
Protocol: (§1) Solvent: 7 parts by weight of dimethylformamide
(§2) Emulsifier: 1 part by weight of alkylaryl polyglycol ether
(§3) To produce a suitable preparation of active compound, 1 part by weight of active compound is mixed with the stated amount of solvent and the stated amount of emulsifier, and the concentrate is diluted with water to the desired concentration.
Rice seedlings (Oryza sativa) are treated by being dipped into the preparation of active compound of the desired concentration and are infested with the green rice leafhopper (Nephotettix cinticeps) while the leaves are still moist.
After the specified period of time, the destruction in % is determined. 100% means that all the leafhoppers have been killed; 0% means that none of the leafhoppers have been killed.

Alopecurus [2] = assay: Pre-emergence test, Alopecurus; conditions: application rate 250 g/ha, after three weeks
Protocol: (§4) Pre-emergence Test Solvent: 3 parts by weight of acetone Emulsifier: 1 part by weight of alkylaryl polyglycol ether To produce a suitable preparation of active compound, 1 part by weight of active compound is mixed with the stated amount of solvent, the stated amount of emulsifier is added and the concentrate is diluted with water to the desired concentration. Seeds of the test plants are sown in normal soil and, after 24 hours, watered with the preparation of the active compound. It is expedient to keep constant the amount of water per unit area. The concentration of the active compound in the preparation is of no importance, only the amount of active compound applied per unit area being decisive. After three weeks, the degree of damage to the plants is rated in % damage in comparison to the development of the untreated control. The figures denote: 0%=no action (like untreated control) 100%=total destruction

Digitaria = assay: Pre-emergence test, Digitaria; conditions: application rate 250 g/ha, after three weeks
Protocol: as §4

Echinochloa = assay: Pre-emergence test, Echinochloa; conditions: application rate 250 g/ha, after three weeks
Protocol: as §4

Chenopodium = assay: Pre-emergence test, Chenopodium; conditions: application rate 250 g/ha, after three weeks
Protocol: as §4

Veronica = assay: Pre-emergence test, Veronica; conditions: application rate 250 g/ha, after three weeks
Protocol: as §4

soya beans [3] = assay: Pre-emergence test, tolerance by soya beans; conditions: application rate 250 g/ha
Protocol: as §4

[4] = system: greenhouse red spider mite (Tetranychus urticae); assay: Tetranychus test (OP-resistant); conditions: after 13 days; active compound concentration 0.1%; infested bean shoots dipped
Protocol: Tetranychus Test (OP-resistant)
as §1, §2, §3
Bean shoots (Phaseolus vulgaris) which are severely infested with the greenhouse red spider mite (Tetranychus urticae) are dipped into a preparation of the active compound of the desired concentration.
After the specified period of time, the destruction in % is determined. 100% means that all the spider mites have been killed; 0% means that none of the spider mites have been killed.

Alopecurus [5] = assay: Post-emergence test, Alopecurus; conditions: application rate 125 g/ha, after three weeks
Protocol: (§5) Post-emergence Test Solvent: 5 parts by weight of acetone Emulsifier: 1 part by weight of alkylaryl polyglycol ether To produce a suitable preparation of active compound, 1 part by weight of active compound is mixed with the stated amount of solvent, the stated amount of emulsifier is added and the concentrate is diluted with water to the desired concentration. Test plants which have a height of 5-15 cm are sprayed with the preparation of the active compound in such a way as to apply the particular amounts of active compound desired per unit area. The concentration of the spray liquor is so chosen that the particular amounts of active compound desired are applied in 2000 l of water/ha. After three weeks, the degree of damage to the plants is. rated in % damage in comparison to the development of the untreated control. The figures denote: 0%=no action (like untreated control) 100%=total destruction

Avena fatua = assay: Post-emergence test, Avena fatua; conditions: application rate 125 g/ha, after three weeks
Protocol: as §5

Setaria = assay: Post-emergence test, Setaria; conditions: application rate 125 g/ha, after three weeks
Protocol: as §5

soya beans [6] = assay: Post-emergence test, tolerance by soya beans; conditions: application rate 125 g/ha
Protocol: as §5

Abutilon = assay: Pre-emergence test, Abutilon; conditions: application rate 250 g/ha, after three weeks
Protocol: as §4

maize = assay: Pre-emergence test, tolerance by maize; conditions: application rate 250 g/ha
Protocol: as §4

Alopecurus myosuroides = assay: Pre-emergence test, Alopecurus myosuroides; conditions: application rate 4000 g/ha, after three weeks
Protocol: as §4

Beta vulgaris = assay: Pre-emergence test, tolerance by Beta vulgaris; conditions: application rate 4000 g/ha
Protocol: as §4

[7] = system: Boophilis Microplus Resistant/SP-resistant Parkhurst Strain; assay: Test with Boophilis Microplus resistant/SP-resistant Parkhurst strain; conditions: 20 μg/animal injected into the abdomen; adult females
Protocol: Test with Boophilis Microplus Resistant/SP-resistant Parkhurst Strain
Test animals: adult females which have sucked themselves full
Solvent: dimethyl sulphoxide
20 mg of active substance are dissolved in 1 ml of dimethyl sulphoxide, and lesser concentrations are prepared by dilution with the same solvent.
The test is carried out in 5 replications. 1 μl of the solutions is injected into the abdomen, and the animals are transferred into dishes and kept in a controlled-environment cabinet. The activity is determined via the inhibition of oviposition. 100% means that no tick has deposited eggs.

Cc1cc(C)c(C2=C(O)C3(CCC(C)CC3)NC2=O)c(C#N)c1 (single isomer, unassigned) [Example I-1-a-4]
destruction in % [1]: 100%
damage to Alopecurus (Alopecurus [2]): 100%
damage to Digitaria (Digitaria): 100%
damage to Echinochloa (Echinochloa): 100%
damage to Chenopodium (Chenopodium): 100%
damage to Veronica (Veronica): 100%
tolerance by soya beans (soya beans [3]): good tolerance
activity (destruction in %) [4]: 100%

CCc1cc(C#N)cc(C)c1C1=C(O)C2(CCC(C)CC2)NC1=O (single isomer, unassigned) [Example I-1-a-5]
destruction in % [1]: 100%
activity (destruction in %) [4]: 100%
damage to Alopecurus (Alopecurus [5]): at least 80%
damage to Avena fatua (Avena fatua): at least 80%
damage to Setaria (Setaria): at least 80%
tolerance by soya beans (soya beans [6]): good tolerance

Cc1cc(C#N)cc(C)c1C1=C(O)C2(CCC(C)CC2)NC1=O (single isomer, unassigned) [Example I-1-a-6]
destruction in % [1]: 100%
damage to Abutilon (Abutilon): 80%
tolerance by maize (maize): good tolerance
activity (destruction in %) [4]: 100%

CCOC(=O)OC1=C(c2ccc(S(C)(=O)=O)cc2Cl)C(=O)NC12CCC(C)CC2 (stereo not drawn) [Example I-1-c-1]
damage to Alopecurus myosuroides (Alopecurus myosuroides): 80%
tolerance by Beta vulgaris (Beta vulgaris): good tolerance

CC1CCC2(CC1)NC(=O)C(c1ccc(S(C)(=O)=O)cc1Cl)=C2O (stereo not drawn) [Example I-1-a-1]
destruction in % [1]: 100%
damage to Alopecurus myosuroides (Alopecurus myosuroides): 80%
tolerance by Beta vulgaris (Beta vulgaris): good tolerance
activity (inhibition of oviposition) [7]: 100%

Source: patent publication US6746990B2, “2-phenyl-substituted heterocyclic 1,3-ketoenols as herbicides and pesticides” (Bayer Aktiengesellschaft, priority 1995, dated 2004)
